Target: T1, LRRK2 WT (Homo sapiens, UniProt Q5S007)
Test: In vitro kinase assay: LRRK2 autophosphorylation
Assay type: biochemical
Details: compound 16 μM; phosphorylation normalized to absence of compound; mean ± S.E.M. of three experiments

T1 sequence (Q5S007 whole entry): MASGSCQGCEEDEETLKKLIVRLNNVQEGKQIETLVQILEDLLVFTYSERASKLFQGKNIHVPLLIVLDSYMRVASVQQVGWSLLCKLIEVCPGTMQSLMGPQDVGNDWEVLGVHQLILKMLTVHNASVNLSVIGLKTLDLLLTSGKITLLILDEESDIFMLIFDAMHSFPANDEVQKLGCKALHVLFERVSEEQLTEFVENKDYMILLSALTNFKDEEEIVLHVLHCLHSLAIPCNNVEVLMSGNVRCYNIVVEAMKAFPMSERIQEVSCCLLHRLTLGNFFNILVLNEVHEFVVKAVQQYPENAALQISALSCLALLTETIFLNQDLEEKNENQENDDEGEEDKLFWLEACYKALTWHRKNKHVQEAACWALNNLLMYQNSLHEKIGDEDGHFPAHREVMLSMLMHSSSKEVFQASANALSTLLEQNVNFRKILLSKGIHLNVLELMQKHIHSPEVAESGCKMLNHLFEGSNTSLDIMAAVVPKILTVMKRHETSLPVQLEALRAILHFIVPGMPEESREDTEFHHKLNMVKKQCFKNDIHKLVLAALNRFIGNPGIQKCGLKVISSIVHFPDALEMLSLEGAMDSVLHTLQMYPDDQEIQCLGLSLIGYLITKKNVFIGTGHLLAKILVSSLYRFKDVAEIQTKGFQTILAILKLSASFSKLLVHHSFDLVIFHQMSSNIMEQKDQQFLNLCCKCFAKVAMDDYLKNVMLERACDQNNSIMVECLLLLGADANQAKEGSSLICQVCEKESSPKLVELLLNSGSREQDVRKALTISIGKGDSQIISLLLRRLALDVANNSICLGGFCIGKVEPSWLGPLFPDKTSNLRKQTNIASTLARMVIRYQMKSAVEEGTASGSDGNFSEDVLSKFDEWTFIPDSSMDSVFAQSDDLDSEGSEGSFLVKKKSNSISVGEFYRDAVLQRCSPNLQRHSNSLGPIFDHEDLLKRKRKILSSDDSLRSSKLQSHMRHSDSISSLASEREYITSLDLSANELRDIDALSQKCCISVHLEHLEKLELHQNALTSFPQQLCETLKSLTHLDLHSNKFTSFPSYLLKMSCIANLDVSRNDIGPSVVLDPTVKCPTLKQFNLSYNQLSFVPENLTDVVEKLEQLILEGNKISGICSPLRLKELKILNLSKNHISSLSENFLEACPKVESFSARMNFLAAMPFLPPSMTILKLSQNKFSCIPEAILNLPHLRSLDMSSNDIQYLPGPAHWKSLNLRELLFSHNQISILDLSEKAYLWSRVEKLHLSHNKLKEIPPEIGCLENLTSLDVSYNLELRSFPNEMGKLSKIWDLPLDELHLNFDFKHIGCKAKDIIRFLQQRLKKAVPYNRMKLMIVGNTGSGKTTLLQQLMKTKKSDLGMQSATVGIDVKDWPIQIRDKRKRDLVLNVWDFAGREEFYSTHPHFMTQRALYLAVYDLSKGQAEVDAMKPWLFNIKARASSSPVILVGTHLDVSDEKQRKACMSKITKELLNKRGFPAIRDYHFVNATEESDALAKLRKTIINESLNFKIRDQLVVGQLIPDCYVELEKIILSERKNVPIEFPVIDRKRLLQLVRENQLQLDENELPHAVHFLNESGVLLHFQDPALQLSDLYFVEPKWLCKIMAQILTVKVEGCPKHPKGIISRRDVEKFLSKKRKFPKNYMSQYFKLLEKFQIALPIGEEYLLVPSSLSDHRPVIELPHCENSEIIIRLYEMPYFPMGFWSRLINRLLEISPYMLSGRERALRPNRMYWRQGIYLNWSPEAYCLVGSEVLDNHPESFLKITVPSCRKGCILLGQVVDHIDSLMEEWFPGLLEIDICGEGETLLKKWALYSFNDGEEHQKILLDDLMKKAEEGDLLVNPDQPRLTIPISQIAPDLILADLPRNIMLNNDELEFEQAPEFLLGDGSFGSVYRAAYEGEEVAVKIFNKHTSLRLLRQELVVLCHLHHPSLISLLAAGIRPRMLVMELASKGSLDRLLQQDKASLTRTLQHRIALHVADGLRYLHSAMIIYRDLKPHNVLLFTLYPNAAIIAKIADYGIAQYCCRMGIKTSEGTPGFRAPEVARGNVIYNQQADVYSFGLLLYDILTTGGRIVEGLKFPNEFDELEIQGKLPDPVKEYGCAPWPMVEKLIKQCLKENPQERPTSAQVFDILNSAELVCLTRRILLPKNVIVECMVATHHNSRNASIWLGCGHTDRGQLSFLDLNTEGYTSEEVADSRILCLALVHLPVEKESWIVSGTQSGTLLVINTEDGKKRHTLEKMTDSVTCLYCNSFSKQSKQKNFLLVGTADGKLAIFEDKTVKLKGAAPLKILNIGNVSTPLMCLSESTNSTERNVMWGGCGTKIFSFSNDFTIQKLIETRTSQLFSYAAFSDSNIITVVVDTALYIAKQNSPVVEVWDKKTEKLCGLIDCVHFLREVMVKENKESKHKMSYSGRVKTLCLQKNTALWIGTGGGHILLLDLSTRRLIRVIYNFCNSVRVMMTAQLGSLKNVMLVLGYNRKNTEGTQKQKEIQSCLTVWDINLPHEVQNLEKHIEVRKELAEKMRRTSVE

| Compound | LRRK2 autophosphorylation Average ± SEM |
| --- | --- |
| CC(C)(C)c1cc(/C=C(\C#N)C(N)=S)cc(C(C)(C)C)c1O [Inhibitor 28] | 69.8 ± 12.0 % of control |
| CN([C@@H](Cc1ccc(OS(=O)(=O)c2cccc3cnccc23)cc1)C(=O)N1CCN(c2ccccc2)CC1)S(=O)(=O)c1cccc2cnccc12 [Inhibitor 40] | 83.1 ± 22.1 % of control |
| O=S(=O)(c1cccc2cnccc12)N1CCCNCC1 [Inhibitor 38] | 84.3 ± 21.9 % of control |
| O=c1c(-c2ccc(O)cc2)coc2cc(O)cc(O)c12 [Inhibitor 59] | 69.4 ± 37.9 % of control |
| COCc1cc(O)c(O)c(O)c1-c1c(COC)cc(O)c(O)c1O [Inhibitor 67] | 79.2 ± 24.2 % of control |
| Cc1ccc(S(=O)(=O)/C=C/C#N)cc1 [Inhibitor 65] | 75.1 ± 12.8 % of control |
| N#CC(C#N)=C(N)/C(C#N)=C/c1cc(O)c(O)c(O)c1 [Inhibitor 15] | 79 ± 49.6 % of control |
| CC(C)(C)c1cc(C=C(C#N)C#N)cc(C(C)(C)C)c1O [Inhibitor 20] | 109.0 ± 19.7 % of control |
| N#CC(C#N)=Cc1cc(O)c(O)c([N+](=O)[O-])c1 [Inhibitor 17] | 89 ± 54.9 % of control |
| CNCCNS(=O)(=O)c1cccc2cnccc12 [Inhibitor 36] | 80.9 ± 3.0 % of control |
| O=C(O)c1cc(NCc2cc(O)ccc2O)ccc1O [Inhibitor 39, 2-hydroxy-5-(2,5-dihydroxybenzyl-amino) benzoic acid] | 103.0 ± 4.4 % of control |
| C#COC1C(C(=O)O)[C@H]2CC[C@@H]1O2 (stereo partly shown) [Inhibitor 73] | 78.8 ± 5.1 % of control |
| Cl.O=S(=O)(c1cccc2c(I)cccc12)N1CCCNCC1 [Inhibitor 42] | 87.3 ± 14.8 % of control |
| O=c1c(-c2ccc(O)cc2)coc2cc(O)ccc12 [Inhibitor 60] | 81.0 ± 31.9 % of control |

Target: T2, LRRK1 WT (Homo sapiens, UniProt Q38SD2)
Test: In vitro kinase assay: LRRK1 autophosphorylation
Assay type: biochemical
Details: not given

T2 sequence (Q38SD2 whole entry): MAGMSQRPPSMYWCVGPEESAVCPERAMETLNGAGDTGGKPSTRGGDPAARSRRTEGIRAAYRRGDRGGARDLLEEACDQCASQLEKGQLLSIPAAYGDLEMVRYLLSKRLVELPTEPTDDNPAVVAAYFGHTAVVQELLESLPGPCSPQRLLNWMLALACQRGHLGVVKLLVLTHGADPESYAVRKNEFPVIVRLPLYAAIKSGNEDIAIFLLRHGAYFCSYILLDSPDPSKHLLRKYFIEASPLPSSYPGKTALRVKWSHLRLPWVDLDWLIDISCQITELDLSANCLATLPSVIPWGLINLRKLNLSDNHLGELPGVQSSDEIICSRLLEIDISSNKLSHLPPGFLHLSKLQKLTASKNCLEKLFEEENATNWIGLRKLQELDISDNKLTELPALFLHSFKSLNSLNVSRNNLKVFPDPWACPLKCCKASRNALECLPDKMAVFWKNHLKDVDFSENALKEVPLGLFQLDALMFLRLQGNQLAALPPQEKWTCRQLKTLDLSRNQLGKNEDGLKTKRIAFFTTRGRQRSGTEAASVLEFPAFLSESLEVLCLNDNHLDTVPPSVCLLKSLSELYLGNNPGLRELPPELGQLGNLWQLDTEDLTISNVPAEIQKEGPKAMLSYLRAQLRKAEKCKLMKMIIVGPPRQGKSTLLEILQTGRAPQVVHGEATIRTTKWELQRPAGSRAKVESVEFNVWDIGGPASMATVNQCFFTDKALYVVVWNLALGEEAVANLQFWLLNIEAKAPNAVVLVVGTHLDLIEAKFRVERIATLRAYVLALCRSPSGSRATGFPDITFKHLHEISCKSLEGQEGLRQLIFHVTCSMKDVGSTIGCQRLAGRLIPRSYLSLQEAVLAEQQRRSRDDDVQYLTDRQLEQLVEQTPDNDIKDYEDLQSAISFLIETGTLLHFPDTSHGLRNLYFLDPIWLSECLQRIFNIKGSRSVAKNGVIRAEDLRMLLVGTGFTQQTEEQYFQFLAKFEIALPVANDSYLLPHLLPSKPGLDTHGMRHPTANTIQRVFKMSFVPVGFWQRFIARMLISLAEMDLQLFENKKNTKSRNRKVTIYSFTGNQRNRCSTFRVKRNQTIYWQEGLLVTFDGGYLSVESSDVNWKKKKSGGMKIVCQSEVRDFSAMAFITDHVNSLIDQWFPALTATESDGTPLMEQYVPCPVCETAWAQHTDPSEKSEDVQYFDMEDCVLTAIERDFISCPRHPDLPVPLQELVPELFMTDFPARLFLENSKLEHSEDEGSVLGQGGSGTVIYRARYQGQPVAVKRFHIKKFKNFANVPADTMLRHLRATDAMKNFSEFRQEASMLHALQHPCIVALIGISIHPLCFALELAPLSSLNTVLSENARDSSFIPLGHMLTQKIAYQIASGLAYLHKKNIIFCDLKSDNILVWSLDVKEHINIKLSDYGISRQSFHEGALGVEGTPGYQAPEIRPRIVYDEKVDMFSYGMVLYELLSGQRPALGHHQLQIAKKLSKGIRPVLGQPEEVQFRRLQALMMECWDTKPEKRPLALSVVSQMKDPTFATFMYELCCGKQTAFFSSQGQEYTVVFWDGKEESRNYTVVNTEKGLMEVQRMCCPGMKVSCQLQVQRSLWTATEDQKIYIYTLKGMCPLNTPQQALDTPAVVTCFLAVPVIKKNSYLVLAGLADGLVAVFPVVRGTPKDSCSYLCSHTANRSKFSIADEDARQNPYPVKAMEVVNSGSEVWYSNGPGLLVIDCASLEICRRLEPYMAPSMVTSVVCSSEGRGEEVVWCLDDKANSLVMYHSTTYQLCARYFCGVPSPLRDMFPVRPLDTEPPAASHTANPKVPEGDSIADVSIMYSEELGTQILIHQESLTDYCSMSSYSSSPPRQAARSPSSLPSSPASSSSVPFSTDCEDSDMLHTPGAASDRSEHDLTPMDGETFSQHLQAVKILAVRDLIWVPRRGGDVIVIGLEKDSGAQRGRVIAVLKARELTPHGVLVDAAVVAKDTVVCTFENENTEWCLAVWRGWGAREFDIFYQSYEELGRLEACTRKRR

| Compound | effect on LRRK1 autophosphorylation |
| --- | --- |
| COc1ccc(S(=O)(=O)N(CCO)c2ccccc2CN(C)C/C=C/c2ccc(Cl)cc2)cc1 [Inhibitor 41, KN-93] | no effect |

Target: T2, LRRK1 WT
Test: In vitro kinase assay: LRRK1-mediated MBP phosphorylation
Assay type: biochemical
Details: not given

| Compound | effect on LRRK1 MBP phosphorylation |
| --- | --- |
| COc1ccc(S(=O)(=O)N(CCO)c2ccccc2CN(C)C/C=C/c2ccc(Cl)cc2)cc1 [Inhibitor 41, KN-93] | no effect |

Target: T1, LRRK2 WT
Test: In vitro kinase assay: LRRK2-mediated MBP phosphorylation
Assay type: biochemical
Details: compound 16 μM; 30° C., 15 min; normalized to absence of compound; mean ± S.E.M. of three experiments

| Compound | MBP phosphorylation Average ± SEM |
| --- | --- |
| CC(C)(C)c1cc(/C=C(\C#N)C(N)=S)cc(C(C)(C)C)c1O [Inhibitor 28] | 76.7 ± 4.5 % of control |
| CN([C@@H](Cc1ccc(OS(=O)(=O)c2cccc3cnccc23)cc1)C(=O)N1CCN(c2ccccc2)CC1)S(=O)(=O)c1cccc2cnccc12 [Inhibitor 40] | 125.2 ± 68.8 % of control |
| O=S(=O)(c1cccc2cnccc12)N1CCCNCC1 [Inhibitor 38] | 120.4 ± 64.7 % of control |
| O=c1c(-c2ccc(O)cc2)coc2cc(O)cc(O)c12 [Inhibitor 59] | 63.1 ± 66.7 % of control |
| COCc1cc(O)c(O)c(O)c1-c1c(COC)cc(O)c(O)c1O [Inhibitor 67] | 123.2 ± 33.8 % of control |
| Cc1ccc(S(=O)(=O)/C=C/C#N)cc1 [Inhibitor 65] | 124.8 ± 23.5 % of control |
| N#CC(C#N)=C(N)/C(C#N)=C/c1cc(O)c(O)c(O)c1 [Inhibitor 15] | 105.1 ± 19.1 % of control |
| CC(C)(C)c1cc(C=C(C#N)C#N)cc(C(C)(C)C)c1O [Inhibitor 20] | 120.7 ± 29.4 % of control |
| N#CC(C#N)=Cc1cc(O)c(O)c([N+](=O)[O-])c1 [Inhibitor 17] | 116.0 ± 9.8 % of control |
| CNCCNS(=O)(=O)c1cccc2cnccc12 [Inhibitor 36] | 50.2 ± 29.4 % of control |
| O=C(O)c1cc(NCc2cc(O)ccc2O)ccc1O [Inhibitor 39, 2-hydroxy-5-(2,5-dihydroxybenzyl-amino) benzoic acid] | 148.9 ± 71.4 % of control |
| C#COC1C(C(=O)O)[C@H]2CC[C@@H]1O2 (stereo partly shown) [Inhibitor 73] | 128.9 ± 9.4 % of control |
| Cl.O=S(=O)(c1cccc2c(I)cccc12)N1CCCNCC1 [Inhibitor 42] | 89.4 ± 71.9 % of control |
| O=c1c(-c2ccc(O)cc2)coc2cc(O)ccc12 [Inhibitor 60] | 141.0 ± 50.8 % of control |

Same assay, conditions: screen at 16 μM

| Compound | effect on LRRK2-mediated phosphorylation of MBP |
| --- | --- |
| COc1ccc(S(=O)(=O)N(CCO)c2ccccc2CN(C)C/C=C/c2ccc(Cl)cc2)cc1 [Inhibitor 41, KN-93] | no effect |

— patent publication US20150018301A1, “LRRK-2-Mediated Neuronal Toxicity” (THE JOHNS HOPKINS UNIVERSITY, priority 2009, published 2015)
